Literature values, collected in patent US11638700B2, “Iron/shikonin nano-composite and use thereof and method for preparing the same by supermolecular self-assembly” (Jilin University, priority 2020, dated 2023).

Conditions: generally considered

## CC(C)=CC[C@@H](O)C1=CC(=O)c2c(O)ccc(O)c2C1=O [shikonin]
  solubility of shikonin in water: insoluble in water
